Source: patent US6365341B1, “Stabilization of highly sensitive nucleic acid stains in aqueous solutions” (priority 2000, dated 2002)

How the values were obtained:
[1] = Dyes that are stabilized by the additive TPABr: t½ in 1xTAPS buffer; settings: 1xTAPS pH 8.2, with or without 14.6 mM TPABr; transillumination at 300 nm
[2] = Dye stabilization in gels: GelStar-prestained agarose gels with additives, 6 days at 45° C., intensity of a 2.5 ng DNA band; type: physicochemical; settings: GelStar in gel, 6 days in the dark
Procedure: SeaKem LE agarose gels (1% w/v, BMA Inc) were cast in 1×TAPS buffer (3-(N-tris(hydroxymethyl)methylamino)-propanesulfonic acid, 40 mM) in the presence of 1×GelStar nucleic acid stain (BMA Inc) and additives indicated in Table 1. Gels were incubated in the dark for 6 days at 45° C., and tested for the detection of DNA as follows: Gels were submerged in 1×TAPS electrophoresis buffer without dye. Then DNA was electrophoresed through the gel at 20 V/cm for one hour. The intensity of a 2.5 ng DNA band was examined by transillumination at 300 nm. The stain in the gel was considered stabilized if the fluorescence intensity of the DNA was more than 80% compared to when the gel was freshly prepared with stain. […] The quality of DNA resolution in fresh gels were recorded as “Good” when the DNA band was sharp, “Fair” when the DNA band was broad, and “Poor” when the DNA band was fuzzy.

[3] = buffer, pH 8.2
[4] = Dye stabilization in solution: t½ of fluorescence intensity with lambda DNA; settings: Table 3

CN1CCN(c2ccc3[nH]c(-c4ccc5[nH]c(-c6ccc(O)cc6)nc5c4)nc3c2)CC1 [Hoechst 33258, Hoechst 33258 pentahydrate (bis-benzimide: BisBnz]
effect of TPABr on the stability [1]: marginal

CCCC[N+](CCCC)(CCCC)CCCC.[OH-] [Tetrabutylammonium hydroxide (TBAOH), Tetrabutylammonium hydroxide]
Dye stabilization at 45° C. ([2]; additive 14.6 mM): Yes (The stain in the gel was considered stabilized if the fluorescence intensity of the DNA was more than 80% compared to when the gel was freshly prepared with stain)

CCCCC[N+](CCCCC)(CCCCC)CCCCC.[OH-] [TPAOH, Tetrapentylammonium hydroxide]
Dye stabilization at 45° C. ([2]; additive 7.3 mM): Yes (The stain in the gel was considered stabilized if the fluorescence intensity of the DNA was more than 80% compared to when the gel was freshly prepared with stain)
Dye stabilization at 45° C. ([2]; additive 14.6 mM): Yes (The stain in the gel was considered stabilized if the fluorescence intensity of the DNA was more than 80% compared to when the gel was freshly prepared with stain)

CCCN(CCCN(C)C)c1cc(/C=C2/Sc3ccccc3N2C)c2ccccc2[n+]1-c1ccccc1 [SYBR Green I]
t½ with TPABr [3]: over 100 days
t½ without TPABr [3]: 5 days
increase of half-life by tetramethylammonium hydroxide alone [4]: 4 fold

Tween-20
Dye stabilization at 45° C. ([2]; additive 0.1% (v/v)): No

CC[n+]1c(-c2ccccc2)c2cc(N)ccc2c2ccc(N)cc21 [ethidium bromide]
effect of TPABr on the stability [1]: marginal

CCCCCCCCCCCC[N+](C)(C)C.[Br-] [Dodecyltrimethylammonium bromide]
Dye stabilization at 45° C. ([2]; additive 28 mM): No
